Source: patent US9096607B2, “Tumor necrosis factor inhibitors” (THE TRUSTEES OF THE UNIVERSITY OF PENNSYLVANIA, priority 2005, dated 2015)
Numbering of substitutions follows the chain as printed. pKd: −log10 of the molar value.

Columns and labels:
[1] = tested on: L929 cells; assay: Inhibition of TNF-α mediated cytolysis of L929 cells (Alamar Blue); assay type: cell-based, murine; details: TNF-α 100 pg/mL, actinomycin D 1 μM
Excerpt: L929 cultured murine fibroblasts cells were obtained from American Type Culture Collection (Manassas, Va.). Tissue culture reagents were from Invitrogen or Sigma-Aldrich. TNF-α and Actinomycin D were from Sigma-Aldrich. Alamar Blue reagents (Cell Titer Blue™) were from Promega. The test compounds I-1 through I-16, II-1 through II-8, and III-1 through III-3 were obtained commercially or can be prepared as described above. The test compounds were individually dissolved in dimethylsulfoxide (DMSO). The test compounds were maintained at 4° C. when not in use. Other reagents were high-purity (ACS-grade, HPLC-grade, MilliQ water, or similar).
Stock L929 cells were grown on tissue culture plastic in complete DMEM (Dulbecco's Modified Eagles Medium) supplemented with 10% FBS (Fetal Bovine Serum), NEAA (non-essential amino acids), and glutamine. L929 cells were plated using the same medium on 96-well tissue culture plates at high density (i.e., ˜4×10^4 cells/well, or similar) before use.
Approximately 20 h after plating, the L929 cells on 96-well plates were re-fed with fresh medium containing one of the test compounds in a concentration selected from 100 μM, 50 μM, 25 μM as a “pre-treatment.” Approximately 30-60 min later, samples were treated with an additional amount of test compound (in the same amount and at the same concentration as the pre-treatment) prepared in medium containing TNF-α (200 pg/mL), and actinomycin D (2 μM). The final concentration of TNF-α in assays was 100 pg/mL. The final concentration of actinomycin D in assays was 1 μM. The plates were incubated for an additional 22-23 h, the Alamar Blue assay reagents were added and metabolic cell viability was determined from reduction of a fluorogenic Alamar Blue derivative.
The temperature was maintained at 37° C. with 5% CO2 and humidified. The metabolic viability was measured 1-2 h after addition of assay reagents/Alamar Blue derivative using TECAN SaFire fluorescence plate reader (Tecan Group Ltd., Maennedorf, Switzerland).
Inhibition of TNF-α induced cytolysis by a test compound (X) at a given concentration (y) was calculated as follows: […]

[2] = target: T1, wild type TNF-R1 (Homo sapiens, UniProt P19438); assay: Surface plasmon resonance, TNF-α binding to wild type TNF-R1; details: SPR
T1 construct: The ectodomain of wild type TNF receptor 1 was obtained by PCR from pKP13; made in house
T1 sequence (P19438 30-211 limits assumed): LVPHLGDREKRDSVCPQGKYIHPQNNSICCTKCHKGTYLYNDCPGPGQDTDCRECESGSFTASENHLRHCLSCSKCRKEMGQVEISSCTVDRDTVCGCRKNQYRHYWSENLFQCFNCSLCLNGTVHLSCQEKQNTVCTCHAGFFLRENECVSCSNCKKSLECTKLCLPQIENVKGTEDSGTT
Excerpt: (§1) Mutations of the TNF-R1 receptor were made at residues 82Q and 112F in the cavity, which were mutated to 82E and 112E respectively. The structural integrity of the mutant receptor was verified by ligand binding in surface plasmon resonance (SPR) studies. […] TNF-α retained the ability to bind to the mutant receptor, albeit with somewhat reduced affinity. These studies confirm that the test compound bound to a single and specific cavity on wild type TNF-R1.
(§2) Recombinant TNF receptor wild type and mutant were immobilized to the CM5 sensor chip with a surface density of 2,000 resonance units. The binding affinity of TNF-α to TNF-R1 was estimated by BiaCORE 3000 (BiaCORE, Uppsala, Sweden) at 25° C. The apparent rate constants (kon and koff) and the equilibrium binding constant (Kd) for TNF/TNF-R binding interaction were estimated from the kinetic analysis of sensorgrams, using the BIA evaluation 3.0 software (BiaCORE).

[3] = target: T2, mutant TNF-R1 (Homo sapiens, UniProt P19438, F141E/Q111E); assay: Surface plasmon resonance, TNF-α binding to mutant TNF-R1; details: SPR, mutant TNF-R1 (82E, 112E)
T2 construct: The ectodomain of wild type TNF receptor 1 was obtained by PCR from pKP13; made in house
T2 sequence (P19438 30-211 Q111E/F141E limits assumed): T1 sequence (P19438 30-211 limits assumed) with Q82E, F112E
Excerpt: as §1, §2

## O=[N+]([O-])c1cccc(NN=C(c2ccc(Cl)cc2)c2ccc(Cl)cc2)c1 [III-3, N-(4,4′-Dichlorobenzhydrylidene)-N-(3-nitrophenyl)hydrazine]
[1]; 25 μM compound
  % Inhibition at: 25 μM: 6.6%
[1]; 50 μM compound
  % Inhibition at: 50 μM: 3.4%
[1]; 100 μM compound
  % Inhibition at: 100μM: 8.1%

## TNF-α
[2]
  pKd: 9.42
[3]
  pKd: 5.33
